Measured values: ChEMBL document CHEMBL1201862, “PubChem BioAssay data set” (2004)
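Protocol summary: plate cells (96-well), add compound at 5 concentrations, incubate 48 h, interpolate endpoints linearly. Abbreviation: GI50, concentration required for 50% inhibition of growth.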 Calls of active or inactive are those of the source. No stated cut-off is given here; in the data, active = GI50 up to about 1.1 µM and inactive = higher.

Key:
Experiment in all cases: NCI tumour cell line growth inhibition, 48 h
[1] = system: MOLT-4
[2] = system: HOP-92
[3] = system: OVCAR-4
[4] = system: OVCAR-8
[5] = system: SK-MEL-5
[6] = system: TK-10
[7] = system: CAKI-1
[8] = system: SN12C
[9] = system: HCC 2998
[10] = system: RPMI-8226
[11] = system: EKVX
[12] = system: NCI-H522
[13] = system: HL-60
[14] = system: COLO 205
[15] = system: ACHN
[16] = system: SK-OV-3
[17] = system: M14
[18] = system: BT-549
[19] = system: MDA-MB-231
[20] = system: T47D

| Structure (SMILES) | GI50 [1] | GI50 [2] | GI50 [3] | GI50 [4] | GI50 [5] | GI50 [6] | GI50 [7] | GI50 [8] | GI50 [9] | GI50 [10] | GI50 [11] | GI50 [12] | GI50 [13] | GI50 [14] | GI50 [15] | GI50 [16] | GI50 [17] | GI50 [18] | GI50 [19] | GI50 [20] |
| --- | --- | --- | --- | --- | --- | --- | --- | --- | --- | --- | --- | --- | --- | --- | --- | --- | --- | --- | --- | --- |
| COc1cc(/C=C2\Cc3ccccc3C2=O)cc(OC)c1OC | > 100 µM (inactive) | 77.3 µM (inactive) | > 100 µM (inactive) | > 100 µM (inactive) | > 100 µM (inactive) | > 100 µM (inactive) | > 100 µM (inactive) | > 100 µM (inactive) | > 100 µM (inactive) | > 100 µM (inactive) | > 100 µM (inactive) | > 100 µM (inactive) | > 100 µM (inactive) | > 100 µM (inactive) | > 100 µM (inactive) | > 100 µM (inactive) | > 100 µM (inactive) |  |  |  |
| Cc1ccc2oc(=O)cc(CC(=O)O)c2c1 | > 100 µM (inactive) | > 100 µM (inactive) | > 100 µM (inactive) | > 100 µM (inactive) | > 100 µM (inactive) | > 100 µM (inactive) | > 100 µM (inactive) | > 100 µM (inactive) | > 100 µM (inactive) | > 100 µM (inactive) | > 100 µM (inactive) | > 100 µM (inactive) | > 100 µM (inactive) | > 100 µM (inactive) | > 100 µM (inactive) | > 100 µM (inactive) | > 100 µM (inactive) |  |  |  |
| O=C1OC[C@@H]2Cc3cc4c(cc3[C@H](c3ccc5c(c3)OCO5)[C@@H]12)OCO4 | 4.11 µM (inactive) |  | 13.9 µM (inactive) | > 25 µM (inactive) | 16 µM (inactive) | > 25 µM (inactive) | > 25 µM (inactive) | 21.9 µM (inactive) | > 25 µM (inactive) | > 25 µM (inactive) | > 25 µM (inactive) |  | 10.6 µM (inactive) | > 25 µM (inactive) | > 25 µM (inactive) |  | > 25 µM (inactive) | > 25 µM (inactive) | 22.7 µM (inactive) |  |
| COC(=O)Cc1cc2c(cc1C(=O)c1ccc(N)cc1)OCO2 | 1.63 µM (inactive) | 2.37 µM (inactive) | 11.2 µM (inactive) | 3.56 µM (inactive) | 0.435 µM (active) | > 19.7 µM (inactive) | 3.48 µM (inactive) | 5.96 µM (inactive) | 0.78 µM (active) | 1.5 µM (inactive) | 4.03 µM (inactive) | 0.228 µM (active) | 2.36 µM (inactive) | 1.21 µM (inactive) |  | 2.94 µM (inactive) | 1.64 µM (inactive) |  | 3.42 µM (inactive) |  |
| N#Cc1c(N)oc(-c2cccc([N+](=O)[O-])c2)c1C#N |  | 17.4 µM (inactive) |  | 21.1 µM (inactive) | 19.6 µM (inactive) | 22.1 µM (inactive) | 20.7 µM (inactive) | 38.6 µM (inactive) | 19.5 µM (inactive) | 22 µM (inactive) | 12.9 µM (inactive) | 23.7 µM (inactive) | 28.5 µM (inactive) | 20.9 µM (inactive) | 19.1 µM (inactive) | > 100 µM (inactive) | 46.9 µM (inactive) |  | 37.1 µM (inactive) | 50 µM (inactive) |
| CC12OC3(C)OC(=O)C(c4ccccc4)(O1)C3(C)O2 (stereo unspecified) | > 100 µM (inactive) | > 100 µM (inactive) | > 100 µM (inactive) | > 100 µM (inactive) | > 100 µM (inactive) | > 100 µM (inactive) | > 100 µM (inactive) | > 100 µM (inactive) | > 100 µM (inactive) | > 100 µM (inactive) | > 100 µM (inactive) | > 100 µM (inactive) | > 100 µM (inactive) | > 100 µM (inactive) | > 100 µM (inactive) | > 100 µM (inactive) | > 100 µM (inactive) |  |  |  |
| CC12CC3CC/C(=N\O)C(C1)C3(N1CCOCC1)C/C2=N/O (stereo unspecified) | > 100 µM (inactive) | > 100 µM (inactive) | > 100 µM (inactive) | > 100 µM (inactive) | > 100 µM (inactive) |  | > 100 µM (inactive) | > 100 µM (inactive) | > 100 µM (inactive) |  | > 100 µM (inactive) | > 100 µM (inactive) | 49.8 µM (inactive) | > 100 µM (inactive) | > 100 µM (inactive) | > 100 µM (inactive) | > 100 µM (inactive) |  | > 100 µM (inactive) | > 100 µM (inactive) |
| O=C1Nc2cc(F)ccc2C1=O | > 100 µM (inactive) | > 100 µM (inactive) | > 100 µM (inactive) | > 100 µM (inactive) | > 100 µM (inactive) | > 100 µM (inactive) | > 100 µM (inactive) | > 100 µM (inactive) | > 100 µM (inactive) | > 100 µM (inactive) | > 100 µM (inactive) | 60.7 µM (inactive) | > 100 µM (inactive) | 72.3 µM (inactive) | > 100 µM (inactive) | > 100 µM (inactive) | > 100 µM (inactive) |  |  |  |
| CC12CCC3(OCCO3)C(OC(=O)c3ccccc3)=C1CCC21OCCO1 (stereo unspecified) | > 100 µM (inactive) | > 100 µM (inactive) | > 100 µM (inactive) | > 100 µM (inactive) | > 100 µM (inactive) | > 100 µM (inactive) | > 100 µM (inactive) | > 100 µM (inactive) | > 100 µM (inactive) | 71.3 µM (inactive) | > 100 µM (inactive) | > 100 µM (inactive) | > 100 µM (inactive) | 63.1 µM (inactive) | > 100 µM (inactive) | > 100 µM (inactive) | > 100 µM (inactive) |  |  |  |
| CC(=O)N1C(C(=O)NC2CCCCC2)CSC1c1ccccc1 (stereo unspecified) | > 100 µM (inactive) | 68.2 µM (inactive) | > 100 µM (inactive) | > 100 µM (inactive) | > 100 µM (inactive) | > 100 µM (inactive) | > 100 µM (inactive) | > 100 µM (inactive) | > 100 µM (inactive) | > 100 µM (inactive) | > 100 µM (inactive) | > 100 µM (inactive) | > 100 µM (inactive) |  | > 100 µM (inactive) | > 100 µM (inactive) | > 100 µM (inactive) | > 100 µM (inactive) |  |  |
| SC1=NC2=C(CSC/C2=C\c2ccc(Cl)cc2)C(c2ccc(Cl)cc2)N1 (stereo unspecified) | 31.1 µM (inactive) | 29.5 µM (inactive) | 42.5 µM (inactive) | 39.2 µM (inactive) | 19.1 µM (inactive) | 36.6 µM (inactive) | 42.3 µM (inactive) | 33.2 µM (inactive) | 25.4 µM (inactive) | 37 µM (inactive) | 38 µM (inactive) | 42.8 µM (inactive) | 24.7 µM (inactive) | 17.3 µM (inactive) | 40 µM (inactive) | 55.8 µM (inactive) |  |  | 35.2 µM (inactive) | 28.6 µM (inactive) |
| CCC(CC)n1cc(C(=O)NC(=O)NCCCCCOC(=O)CCCCCCCCCCC(=O)OCCCCCNC(=O)NC(=O)c2cn(C(CC)CC)c(=O)[nH]c2=O)c(=O)[nH]c1=O | > 100 µM (inactive) | > 100 µM (inactive) | > 100 µM (inactive) | 64.3 µM (inactive) | > 100 µM (inactive) | > 100 µM (inactive) | > 100 µM (inactive) | > 100 µM (inactive) | > 100 µM (inactive) | > 100 µM (inactive) | > 100 µM (inactive) | > 100 µM (inactive) | > 100 µM (inactive) | > 100 µM (inactive) | > 100 µM (inactive) | > 100 µM (inactive) | > 100 µM (inactive) |  |  |  |
| CN1c2ccccc2C(=O)NC12CCNCC2 | > 100 µM (inactive) | > 100 µM (inactive) | > 100 µM (inactive) | > 100 µM (inactive) | > 100 µM (inactive) | > 100 µM (inactive) |  |  | > 100 µM (inactive) | > 100 µM (inactive) | > 100 µM (inactive) |  | > 100 µM (inactive) | > 100 µM (inactive) | > 100 µM (inactive) | > 100 µM (inactive) | > 100 µM (inactive) |  |  | > 100 µM (inactive) |
| Cc1nc2ccc(Br)cc2c(=O)n1-c1ccc(N)cc1 | > 100 µM (inactive) | > 100 µM (inactive) | > 100 µM (inactive) | > 100 µM (inactive) | > 100 µM (inactive) | > 100 µM (inactive) | > 100 µM (inactive) | > 100 µM (inactive) | > 100 µM (inactive) |  | > 100 µM (inactive) |  | > 100 µM (inactive) | > 100 µM (inactive) | > 100 µM (inactive) | > 100 µM (inactive) | > 100 µM (inactive) | 99.5 µM (inactive) | > 100 µM (inactive) |  |
| CCOC(=O)/C(=C\NC(C)(C)CO)c1nc2ccccc2[nH]1 | 43.3 µM (inactive) | 77.4 µM (inactive) | 94 µM (inactive) | 74.8 µM (inactive) | 26.7 µM (inactive) | 63.8 µM (inactive) | > 100 µM (inactive) | > 100 µM (inactive) | 46.2 µM (inactive) | 30.8 µM (inactive) | > 100 µM (inactive) | 61.7 µM (inactive) | 44.5 µM (inactive) | 58.9 µM (inactive) | 27.2 µM (inactive) | > 100 µM (inactive) | > 100 µM (inactive) | > 100 µM (inactive) |  |  |
| O=C1/C(=C/c2ccccc2)CNC/C1=C\c1ccccc1 | 0.429 µM (active) | 8.13 µM (inactive) | 1.43 µM (inactive) | 1.71 µM (inactive) | 1.91 µM (inactive) | 2.4 µM (inactive) | 5.65 µM (inactive) | 1.69 µM (inactive) | 1.87 µM (inactive) | 0.221 µM (active) | 4.78 µM (inactive) | 1.02 µM (active) | 0.406 µM (active) | 1.58 µM (inactive) | 2.05 µM (inactive) | 2.22 µM (inactive) | 1.81 µM (inactive) |  |  |  |
